molecular target: LRRK2 (Homo sapiens (Human), UniProt Q5S007, G2019S); test: In Vitro LRRK2 LabChip Assay (LRRK2 Ki); format: biochemical
Description: In Vitro LRRK2 LabChip Assay This assay was used to determine a compound's potency in inhibiting activity of LRRK2 by determining, Kiapp, IC50, or percent inhibition values. In a polypropylene plate, LRRK2, fluorescently-labeled peptide substrate, ATP and test compound were incubated together. Using a LabChip 3000 (Caliper Life Sciences), after the reaction the substrate was separated by capillary electrophoresis into two populations: phosphorylated and unphosphorylated. The relative amounts of each were quantitated by fluorescence intensity. LRRK2 Ki was determined according to the equation: […]))). Ki values in Table 4 and elsewhere herein are shown in μM. […] Substrate: 5[…] Non-binding plate: 384 well clear V-bottom polypropylene plates (Greiner cat #781280). ATP: 10 mM ATP (Cell Signaling cat #9804). Triton X-100: Triton X-100. Brij-35: Brij-35 (Pierce cat #20150). […] DMSO: DMSO (Sigma cat #34869-100 ML). […] Compound Plate Preparation: For serial dilutions, 34.6 μl DMSO was added to columns 3-24. For the assay controls, 37.5 μl DMSO was added to columns 1 and 2 of rows A and […]-028831 (Staurosporine) was added to columns 1 and 2, row B. […] A Precision instrument was used to perform 1:3.16 serial dilutions (“PLK_BM_serial_halflog”). ATP Preparation: ATP was diluted to 282.1 μM in Complete Kinase Buffer (final concentration was 130 μM). […] Assay Procedure: To a 50 μl polypropylene plate, 5 μl/well buffer/substrate was added by hand to Blank wells. A Biomek FX was used to start the kinase reaction (“PLK SAR 23 ATP”). […] 5 μl/well kinase/substrate in Assay Plate; The plate was incubated for 2 hours in the dark. Biomek FX was used to stop the kinase reaction (“PLK Stop”), and 10 μl/well Stop solution was added to the Assay Plate.

Sequence of LRRK2 (Q5S007 970-2527 G2019S): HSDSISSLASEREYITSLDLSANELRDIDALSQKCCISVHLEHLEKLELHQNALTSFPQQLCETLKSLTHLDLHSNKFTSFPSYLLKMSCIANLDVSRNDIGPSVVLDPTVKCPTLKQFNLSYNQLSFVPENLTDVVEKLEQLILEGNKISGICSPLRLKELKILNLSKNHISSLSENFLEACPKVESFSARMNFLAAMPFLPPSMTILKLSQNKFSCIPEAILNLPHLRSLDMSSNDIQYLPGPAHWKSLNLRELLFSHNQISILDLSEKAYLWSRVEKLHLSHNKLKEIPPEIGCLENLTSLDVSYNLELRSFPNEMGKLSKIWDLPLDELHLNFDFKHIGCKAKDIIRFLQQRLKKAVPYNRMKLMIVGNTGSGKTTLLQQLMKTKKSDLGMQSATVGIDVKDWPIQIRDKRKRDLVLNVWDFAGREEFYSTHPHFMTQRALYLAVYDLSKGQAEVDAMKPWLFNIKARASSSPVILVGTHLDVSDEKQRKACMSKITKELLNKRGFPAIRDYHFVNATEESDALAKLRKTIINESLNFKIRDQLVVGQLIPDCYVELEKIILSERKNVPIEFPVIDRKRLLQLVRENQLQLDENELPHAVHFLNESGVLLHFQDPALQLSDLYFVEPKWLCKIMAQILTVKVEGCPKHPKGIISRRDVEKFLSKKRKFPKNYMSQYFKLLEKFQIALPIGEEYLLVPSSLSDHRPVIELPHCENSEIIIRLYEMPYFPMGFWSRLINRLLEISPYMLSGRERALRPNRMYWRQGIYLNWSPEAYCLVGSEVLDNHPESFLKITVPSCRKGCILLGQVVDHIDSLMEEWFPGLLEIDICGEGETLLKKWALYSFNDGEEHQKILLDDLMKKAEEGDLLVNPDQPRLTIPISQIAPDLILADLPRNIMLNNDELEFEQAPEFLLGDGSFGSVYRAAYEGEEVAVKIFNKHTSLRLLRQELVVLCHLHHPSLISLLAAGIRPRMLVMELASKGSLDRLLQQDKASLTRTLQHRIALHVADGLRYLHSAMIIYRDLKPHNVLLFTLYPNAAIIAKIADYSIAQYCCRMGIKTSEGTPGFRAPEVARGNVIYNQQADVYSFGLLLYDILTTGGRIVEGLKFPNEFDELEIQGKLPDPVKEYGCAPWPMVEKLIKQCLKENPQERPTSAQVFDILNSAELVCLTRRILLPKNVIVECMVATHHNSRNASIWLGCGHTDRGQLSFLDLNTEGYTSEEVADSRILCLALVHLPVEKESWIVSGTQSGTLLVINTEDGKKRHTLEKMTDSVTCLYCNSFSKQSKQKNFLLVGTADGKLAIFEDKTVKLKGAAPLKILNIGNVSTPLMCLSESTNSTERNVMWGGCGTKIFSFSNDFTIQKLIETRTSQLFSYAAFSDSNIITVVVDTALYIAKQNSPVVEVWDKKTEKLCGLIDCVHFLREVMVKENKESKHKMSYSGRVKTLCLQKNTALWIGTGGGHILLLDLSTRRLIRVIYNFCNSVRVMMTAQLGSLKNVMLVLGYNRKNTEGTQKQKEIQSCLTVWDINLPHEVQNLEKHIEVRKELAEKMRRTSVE

Ki	SMILES
5 nM	CNc1nc(Nc2cc(F)c(-n3nc(C)cc3COC)cc2OC)ncc1C(F)(F)F [Compound 47, N2-(5-fluoro-2-methoxy-4-(5-(methoxymethyl)-3-methyl-1H-pyrazol-1-yl)phenyl)-N4-methyl-5-(trifluoromethyl) pyrimidine-2,4-diamine]
3 nM	CNc1nc(Nc2ccc(-c3cnn(C)c3C)cc2OC)ncc1C(F)(F)F [Compound 39, N2-(4-(1,5-dimethyl-1H-pyrazol-4-yl)-2-methoxyphenyl)-N4-methyl-5-(trifluoromethyl) pyrimidine-2,4-diamine]
3 nM	CNc1nc(Nc2cc(OC)c(-c3cncn3C)cc2Cl)ncc1C(F)(F)F [Compound 21, N^2-(2-chloro-5-methoxy-4-(1-methyl-1H-imidazol-5-yl)phenyl)-N^4-methyl-5-(trifluoromethyl) pyrimidine-2,4-diamine]
44 nM	CNc1nc(Nc2cc(OC)c(-c3nc(C)no3)cc2Cl)ncc1Cl [Compound 36, 5-chloro-N^2-(2-chloro-5-methoxy-4-(3-methyl-1,2,4-oxadiazol-5-yl)phenyl)-N^4-methylpyrimidine-2,4-diamine]
10 nM	CNc1nc(Nc2cc(F)c(-c3nnnn3C)cc2OC)ncc1C(F)(F)F [Compound 22, N^2-(5-fluoro-2-methoxy-4-(1-methyl-1H-tetrazol-5-yl)phenyl)-N^4-methyl-5-(trifluoromethyl) pyrimidine-2,4-diamine]
1 nM	CNc1nc(Nc2cc(C)c(-n3nnnc3COC)cc2OC)ncc1C(F)(F)F [Compound 46, N2-(2-methoxy-4-(5-(methoxymethyl)-1H-tetrazol-1-yl)-5-methylphenyl)-N4-methyl-5-(trifluuromethyl) pyrimidine-2,4-diamine]
41 nM	CNc1nc(Nc2cc(OC)c(-c3nc(C)no3)cc2Cl)ncc1C(F)(F)F [Compound 31, N^2-(2-chloro-5-methoxy-4-(3-methyl-1,2,4-oxadiazol-5-yl)phenyl)-N^4-methyl-5-(trifluoromethyl) pyrimidine-2,4-diamine]
12 nM	CNc1nc(Nc2cc(F)c(-c3nnc(C)o3)cc2OC)ncc1C(F)(F)F [Compound 30, N^2-(5-fluoro-2-methoxy-4-(5-methyl-1,3,4-oxadiazol-2-yl)phenyl)-N^4-methyl-5-(trifluoromethyl) pyrimidine-2,4-diamine]

Second part, the compound before the results:

SMILES	Ki
CNc1nc(Nc2ccc(-c3cnn(C)c3)cc2OC)ncc1C(F)(F)F [Compound 5, N2-(2-methoxy-4-(1-methyl-1H-pyrazol-4-yl)phenyl)-N4-methyl-5-(trifluoromethyl) pyrimidine-2,4-diamine]	4 nM
CNc1nc(Nc2cc(F)c(-c3nc(C)no3)cc2OC)ncc1C(F)(F)F [Compound 6, N2-(5-fluoro-2-methoxy-4-(3-methyl-1,2,4-oxadiazol-5-yl)phenyl)-N4-methyl-5-(trifluoromethyl) pyrimidine-2,4-diamine]	32 nM
CNc1nc(Nc2ccc(-n3cncn3)cc2OC)ncc1C(F)(F)F [Compound 4, N2-(2-methoxy-4-(1H-1,2,4-triazol-1-yl)phenyl)-N4-methyl-5-(trifluoromethyl) pyrimidine-2,4-diamine]	3 nM
CNc1nc(Nc2ccc(-c3cncn3C)cc2OC)ncc1Cl [Compound 16, 5-chloro-N2-(2-methoxy-4-(1-methyl-1H-imidazol-5-yl)phenyl)-N4-methylpyrimidine-2,4-diamine]	2 nM
CNc1nc(Nc2cc(OC)c(-c3nnc(C)o3)cc2Cl)ncc1C(F)(F)F [Compound 7, N2-(2-chloro-5-methoxy-4-(5-methyl-1,3,4-oxadiazol-2-yl)phenyl)-N4-methyl-5-(trifluoromethyl) pyrimidine-2,4-diamine]	8 nM
CNc1nc(Nc2ccc(-c3cnoc3)cc2OC)ncc1Cl [Compound 14, 5-chloro-N^2-(4-(isoxazol-4-yl)-2-methoxyphenyl)-N^4-methylpyrimidine-2,4-diamine]	15 nM
